The values below come from ChEMBL document CHEMBL3400125, “Discovery of novel 2-(alkylmorpholin-4-yl)-6-(3-fluoropyridin-4-yl)-pyrimidin-4(3H)-ones as orally-active GSK-3β inhibitors for Alzheimer's disease” (Bioorg Med Chem Lett, 2015).

The pIC50 is the negative decadic logarithm of the IC50, by convention in mol/L. As usually defined, the CLint scaled is the capacity of the preparation to metabolise the compound, expressed as a volume cleared per time. High values mean rapid turnover, low ones slow turnover. As a reminder, the ED50 is the midpoint of the dose-response relation.

pIC50: −log10 of the molar value. Some results are limits rather than exact numbers.

Series [1] deals with Glycogen synthase kinase-3 beta (Homo sapiens, UniProt P49841). Description: Inhibition of human recombinant GSK3beta assessed as inhibition of [gamma32P]ATP after 1 hr by liquid scintillation counting in presence of prephosphorylated GS1 peptide.
In series [2] the target is Cytochrome P450 2D6 (Homo sapiens, UniProt P10635). Description: Inhibition of recombinant human CYP2D6. In kind it is ADME.
For series [3], the target named is T1, Cytochrome P450 1A2 (Homo sapiens, UniProt P05177).
T1 sequence (P05177 whole entry): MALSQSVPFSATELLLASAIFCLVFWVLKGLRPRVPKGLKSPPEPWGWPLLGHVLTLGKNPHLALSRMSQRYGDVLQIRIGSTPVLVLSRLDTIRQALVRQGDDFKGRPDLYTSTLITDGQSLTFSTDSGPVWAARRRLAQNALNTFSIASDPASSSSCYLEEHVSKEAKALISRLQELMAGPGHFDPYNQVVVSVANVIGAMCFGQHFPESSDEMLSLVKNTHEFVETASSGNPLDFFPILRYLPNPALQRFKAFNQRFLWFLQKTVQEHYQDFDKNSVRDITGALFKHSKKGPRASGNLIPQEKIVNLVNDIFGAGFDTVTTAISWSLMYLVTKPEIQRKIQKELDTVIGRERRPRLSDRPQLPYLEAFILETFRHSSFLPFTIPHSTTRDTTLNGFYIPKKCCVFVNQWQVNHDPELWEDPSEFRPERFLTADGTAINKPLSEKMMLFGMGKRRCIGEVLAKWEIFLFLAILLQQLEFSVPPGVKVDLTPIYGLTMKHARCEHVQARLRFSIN
In words: Inhibition of recombinant human CYP1A2. In kind it is ADME.

For series [4], the target named is Cytochrome P450 3A4 (Homo sapiens, UniProt P08684). In words: Inhibition of recombinant human CYP3A4. The series is classed as ADME.
Series [5] in a line: Intrinsic clearance in human liver microsomes. The series is classed as ADME. In general terms: Liver microsomes are a subcellular fraction often used to study metabolism.
Series [6] can be described thus: Permeability across human Caco2 cells. The settings on record: Caco-2, read-out: permeability. The series is classed as ADME, cell-based.
In series [7] the test system is Mus musculus. In words: Inhibition of GSK3beta-mediated tau phosphorylation at Ser396 residue in po dosed CD-1 mouse measured 1 hr post dose. The settings on record: CD-1, po. In kind it is functional.

Glycogen synthase kinase-3 beta, sequence (P49841 whole entry): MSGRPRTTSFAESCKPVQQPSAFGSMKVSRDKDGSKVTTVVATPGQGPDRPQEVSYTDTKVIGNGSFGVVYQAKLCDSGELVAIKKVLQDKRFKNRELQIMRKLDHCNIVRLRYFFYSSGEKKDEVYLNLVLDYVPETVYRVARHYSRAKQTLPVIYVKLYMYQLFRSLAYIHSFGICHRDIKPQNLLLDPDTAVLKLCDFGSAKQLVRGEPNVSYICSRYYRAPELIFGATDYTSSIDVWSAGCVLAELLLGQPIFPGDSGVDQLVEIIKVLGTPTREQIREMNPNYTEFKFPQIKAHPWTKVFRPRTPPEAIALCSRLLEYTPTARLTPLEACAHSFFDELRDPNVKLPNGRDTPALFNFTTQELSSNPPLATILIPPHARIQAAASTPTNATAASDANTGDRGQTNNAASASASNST
Cytochrome P450 2D6, sequence (P10635 whole entry): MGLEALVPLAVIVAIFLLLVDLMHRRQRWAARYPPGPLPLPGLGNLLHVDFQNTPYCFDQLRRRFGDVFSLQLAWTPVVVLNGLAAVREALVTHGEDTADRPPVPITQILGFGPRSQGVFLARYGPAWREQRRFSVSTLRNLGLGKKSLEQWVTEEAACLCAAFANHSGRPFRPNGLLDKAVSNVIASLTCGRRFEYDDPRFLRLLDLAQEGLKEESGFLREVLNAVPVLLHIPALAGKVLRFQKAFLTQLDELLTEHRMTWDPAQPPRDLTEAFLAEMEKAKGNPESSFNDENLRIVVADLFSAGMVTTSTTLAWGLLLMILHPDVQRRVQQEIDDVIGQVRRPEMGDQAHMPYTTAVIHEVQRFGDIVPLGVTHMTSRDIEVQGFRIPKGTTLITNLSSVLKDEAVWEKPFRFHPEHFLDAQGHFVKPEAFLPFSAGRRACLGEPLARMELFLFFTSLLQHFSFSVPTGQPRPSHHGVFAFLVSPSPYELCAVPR
Cytochrome P450 3A4, sequence (P08684 whole entry): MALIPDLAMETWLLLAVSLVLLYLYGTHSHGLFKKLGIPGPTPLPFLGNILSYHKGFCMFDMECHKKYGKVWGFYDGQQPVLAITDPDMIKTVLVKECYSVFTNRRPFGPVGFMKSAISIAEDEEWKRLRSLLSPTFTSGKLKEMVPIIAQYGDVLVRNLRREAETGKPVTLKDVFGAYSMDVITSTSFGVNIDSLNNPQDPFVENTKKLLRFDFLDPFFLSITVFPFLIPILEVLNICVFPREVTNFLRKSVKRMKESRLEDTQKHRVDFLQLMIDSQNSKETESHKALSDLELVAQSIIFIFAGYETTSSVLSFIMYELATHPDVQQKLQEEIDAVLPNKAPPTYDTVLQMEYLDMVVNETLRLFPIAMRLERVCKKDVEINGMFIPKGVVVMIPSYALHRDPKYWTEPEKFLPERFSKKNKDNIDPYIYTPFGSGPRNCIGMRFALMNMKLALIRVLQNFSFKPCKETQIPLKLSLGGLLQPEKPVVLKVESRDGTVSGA

Regarding `C[C@@H]1OCCN(c2nc(-c3ccncc3F)cc(=O)n2C)[C@@H]1C` (stereo in doubt; 14), the pIC50 in series [1] is 7.49.

Regarding `CCCCC1CN(c2nc(-c3ccncc3F)cc(=O)n2C)CCO1` (racemic), the pIC50 in series [2] was 5.64; in series [3] it was 5.12; in series [1], 7.92; in series [4], < 4.30. Also, the CLint scaled in series [5] stood at 210 µL/min/mg.

As to `Cn1c(N2CCO[C@@H]3COC[C@H]32)nc(-c2ccncc2F)cc1=O`, the negative logarithm of the IC50 (pIC50) in series [2] was < 4.30; in series [3], < 4.30; in series [1], 8.51; in series [4] it was < 4.30. Further, the Papp in series [6] was determined as 545 nm/s. The compound further came in with a CLint scaled in series [5] of 20 µL/min/mg.

For the compound `Cn1c(N2CCO[C@@H](c3ccc(F)cc3)C2)nc(-c2ccncn2)cc1=O`, the pIC50 in series [4] is < 4.30. This compound also returned an intrinsic metabolic clearance (CLint scaled) in series [5] of 60 µL/min/mg.

For `Cn1c(N2CCO[C@@H]3CCCC[C@H]32)nc(-c2ccncc2F)cc1=O`, the negative-log IC50 (pIC50) in series [2] is < 4.30; in series [3], 4.85; in series [1], 8.43; in series [4], < 4.30. In series [6], the Papp worked out at 418 nm/s. In addition, in series [5], the intrinsic metabolic clearance (CLint scaled) was found to be 200 µL/min/mg.

For `CC[C@H]1COCCN1c1nc(-c2ccncc2F)cc(=O)n1C`, in series [1], the pIC50 was 7.52.

With `CC1N(c2nc(-c3ccncc3F)cc(=O)n2C)CCOC1(C)C` (racemic), the pIC50 in series [1] was 8.01.

Consider `CC[C@@H]1COCCN1c1nc(-c2ccncc2F)cc(=O)n1C`, for which, in series [1], the pIC50 was 7.72.

For `C[C@@H]1COCCN1c1nc(-c2ccncc2F)cc(=O)n1C`, the pIC50 in series [2] is < 4.30; in series [3] it was 4.73; in series [1] it was 8.15; in series [4], < 4.30. In series [7], this compound had an ED50 of 6.8 mg/kg. Besides, the Papp in series [6] was 546 nm/s. Also, the CLint scaled in series [5] amounted to 30 µL/min/mg.

Take `Cn1c(N2CCO[C@H]3CCC[C@@H]32)nc(-c2ccncc2F)cc1=O`: the pIC50 in series [1] was 7.46.

`C[C@@H]1OCCN(c2nc(-c3ccncc3F)cc(=O)n2C)[C@@H]1C` (stereo in doubt; 13): the negative-log IC50 (pIC50) in series [1] is 7.80.

For the compound `C[C@@H]1[C@@H](C)OCCN1c1nc(-c2ccncc2F)cc(=O)n1C`, the pIC50 is < 4.30 in series [2], 4.80 in series [3], 8.31 in series [1] and < 4.30 in series [4]. The Papp in series [6] was found to be 485 nm/s.

As for `Cn1c(N2CCO[C@@H]3CCC[C@H]32)nc(-c2ccncc2F)cc1=O`, the pIC50 in series [2] is < 4.30; in series [3], 4.68; in series [1], 8.38; in series [4] it was < 4.30. Moreover, the Papp in series [6] was determined as 445 nm/s. The compound also had an intrinsic clearance (CLint scaled) in series [5] of 40 µL/min/mg.

With `C[C@@H]1CO[C@@H](C)CN1c1nc(-c2ccncc2F)cc(=O)n1C`, the pIC50 in series [1] was 7.39.

Consider `Cn1c(N2CCOC(C3CCC3)C2)nc(-c2ccncc2F)cc1=O` (racemic), for which the pIC50 in series [2] is 4.42; in series [3] it was 5.82; in series [1], 7.92; in series [4] it was < 4.30. Further, the intrinsic metabolic clearance (CLint scaled) in series [5] was 200 µL/min/mg.

Take `CC(C)[C@@H]1COCCN1c1nc(-c2ccncc2F)cc(=O)n1C`: the pIC50 in series [1] was 7.85.

As to `C[C@@H]1CN(c2nc(-c3ccncc3F)cc(=O)n2C)[C@H](C)CO1`, the pIC50 in series [1] is 6.34.

In the case of `C[C@H]1COCCN1c1nc(-c2ccncc2F)cc(=O)n1C`, the negative logarithm of the IC50 (pIC50) in series [2] was < 4.30; in series [3] it was 5.24; in series [1], 7.64; in series [4], < 4.30. This compound returned a CLint scaled in series [5] of 20 µL/min/mg.

In the case of `C[C@@H]1OCCN(c2nc(-c3ccncc3F)cc(=O)n2C)[C@H]1C`, the negative-log IC50 (pIC50) in series [1] is 7.72.

Regarding `Cn1c(N2CCOCC2)nc(-c2ccncc2F)cc1=O`, the pIC50 in series [1] is 7.17.

With `CC(C)C1CN(c2nc(-c3ccncc3F)cc(=O)n2C)CCO1` (racemic), the pIC50 is < 4.30 in series [2], 5.48 in series [3], 7.77 in series [1] and < 4.30 in series [4]. In series [5], this compound displayed a CLint scaled of 70 µL/min/mg.
